Drawing on PubChem BioAssay AID1259411 (Chemical Carcinogenesis Research Information System (CCRIS), 2018), this text covers carcinogen call for ten molecules.

The data set deals with rodent carcinogenicity bioassays, tumor incidence. Briefly: CCRIS carcinogenicity studies. In a few lines: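 Archive of carcinogenicity, mutagenicity, tumor promotion and tumor inhibition results drawn from journals, NCI reports and other sources, expert-reviewed; covers 1985-2011 and is no longer updated.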

Molecules are shown by their SMILES. Active and inactive are the calls of the source. No rule for the calls is given here. Where a SMILES comes first, the peptide text is derived from it.

Take `CC#N`: the carcinogen call (Species: MOUSE, Strain/Sex: B6C3F1/FEMALE, Route: INHALATION, Dose: 0, 50, 100, 200 PPM 6 HR/D 5 D/WK FOR 103 WK (STUDY DURATION: 105 WK), Dose: 0, 50, 100, 200 PPM 6 HR/D 5 D/WK FOR 103 WK (STUDY DURATION: 105 WK)) is “inactive; negative”; the carcinogen call (Species: MOUSE, Strain/Sex: B6C3F1/MALE, Route: INHALATION, Dose: 0, 50, 100, 200 PPM 6 HR/D 5 D/WK FOR 103 WK (STUDY DURATION: 105 WK), Dose: 0, 50, 100, 200 PPM 6 HR/D 5 D/WK FOR 103 WK (STUDY DURATION: 105 WK)) was “inactive; negative”; the carcinogen call (Species: RAT, Strain/Sex: F344/FEMALE, Route: INHALATION, Dose: 0, 100, 200, 400 PPM 6/HR/D 5 D/WK FOR 103 WK (STUDY DURATION: 105 WK), Dose: 0, 100, 200, 400 PPM 6/HR/D 5 D/WK FOR 103 WK (STUDY DURATION: 105 WK)) was “inactive; negative”; the carcinogen call (Species: RAT, Strain/Sex: F344/MALE, Route: INHALATION, Dose: 0, 100, 200, 400 PPM 6/HR/D 5 D/WK FOR 103 WK (STUDY DURATION: 105 WK), Dose: 0, 100, 200, 400 PPM 6/HR/D 5 D/WK FOR 103 WK (STUDY DURATION: 105 WK), Tumor Site: Type of Lesion: LIVER: HEPATOCELLULAR ADENOMA, HEPATOCELLULAR CARCINOMA, HEPATOCELLULAR ADENOMA OR CARCINOMA) was “equivocal”.

Consider `c1ccc2c(c1)cc1ccc3c4ccccc4cc4ccc2c1c43`, for which the carcinogen call was “active; positive” (Species: MOUSE, Route: DERMAL, Tumor Site: Type of Lesion: INTEGUMENTARY SYSTEM (SKIN)) and “active; positive” (Species: MOUSE, Route: SUBCUTANEOUS, Tumor Site: Type of Lesion: INJECTION SITE).

Turning to `Cc1ccc([N+]#N)cc1`, the carcinogen call was “active; positive” (Species: MOUSE, Strain/Sex: SWISS/FEMALE, Route: SUBCUTANEOUS, Dose: 0, 50 UG/G 1/WK FOR 16 OR 19 WK (STUDY DURATION: 140 WK), Tumor Site: Type of Lesion: SUBCUTANEOUS TISSUE: TUMOR, SKIN: TUMOR) and “active; positive” (Species: MOUSE, Strain/Sex: SWISS/MALE, Route: SUBCUTANEOUS, Dose: 0, 50 UG/G 1/WK FOR 16 OR 19 WK (STUDY DURATION: 140 WK), Tumor Site: Type of Lesion: SUBCUTANEOUS TISSUE: TUMOR).

As for `O=C1C(O)N=C(c2ccccc2F)c2cc(Cl)ccc2N1CCO` (stereo unspecified), the carcinogen call (Species: RAT, Strain/Sex: SPRAGUE-DAWLEY/FEMALE, Route: ORAL, Dose: 0, 3, 10, 30 MG/KG IN THE DIET FOR 104 WK (STUDY DURATION: 104 WK), Dose: 0, 3, 10, 30 MG/KG IN THE DIET FOR 104 WK (STUDY DURATION: 104 WK)) is “inactive; negative” and the carcinogen call (Species: RAT, Strain/Sex: SPRAGUE-DAWLEY/MALE, Route: ORAL, Dose: 0, 3, 10, 30 MG/KG IN THE DIET FOR 104 WK (STUDY DURATION: 104 WK), Dose: 0, 3, 10, 30 MG/KG IN THE DIET FOR 104 WK (STUDY DURATION: 104 WK)) was “inactive; negative”.

Turning to `CCC1=C(C)CN(C(=O)NCCc2ccc(S(=O)(=O)NC(=O)NC3CCC(C)CC3)cc2)C1=O` (stereo unspecified), the carcinogen call was “inactive; negative” (Species: DOG, Strain/Sex: BEAGLE/FEMALE, Route: ORAL, Dose: 0, 0.8, 16, 320 MG/KG BW IN GELATIN CAPSULE 1/D 7 D/WK FOR 12 MO (STUDY DURATION: 15 MO), Dose: 0, 0.8, 16, 320 MG/KG BW IN GELATIN CAPSULE 1/D 7 D/WK FOR 12 MO (STUDY DURATION: 15 MO)); “inactive; negative” (Species: DOG, Strain/Sex: BEAGLE/MALE, Route: ORAL, Dose: 0, 0.8, 16, 320 MG/KG BW IN GELATIN CAPSULE 1/D 7 D/WK FOR 12 MO (STUDY DURATION: 13 MO), Dose: 0, 0.8, 16, 320 MG/KG BW IN GELATIN CAPSULE 1/D 7 D/WK FOR 12 MO (STUDY DURATION: 13 MO)); “inactive; negative” (Species: RAT, Strain/Sex: WISTAR/FEMALE, Route: ORAL, Dose: 0, 20, 1000, 50000 PPM IN DIET FOR 12 MO (STUDY DURATION: 13 MO), Dose: 0, 20, 1000, 50000 PPM IN DIET FOR 12 MO (STUDY DURATION: 13 MO)); “inactive; negative” (Species: RAT, Strain/Sex: WISTAR/MALE, Route: ORAL, Dose: 0, 20, 1000, 50000 PPM IN DIET FOR 12 MO (STUDY DURATION: 13 MO), Dose: 0, 20, 1000, 50000 PPM IN DIET FOR 12 MO (STUDY DURATION: 13 MO)).

With `C1CN1c1nc(N2CC2)nc(N2CC2)n1`, where the note is “Species: MOUSE, Route: INTRAPERITONEAL, Tumor Site: Type of Lesion: OVARIES, LUNG, THYMUS GLAND, Tumor Site: Type of Lesion: OVARIES, LUNG, THYMUS GLAND”, the carcinogen call is “active; positive”.

In the case of `COC(=O)[C@H]1[C@H]2C[C@@H]3c4[nH]c5cc(OC)ccc5c4CCN3C[C@H]2C[C@@H](OC(=O)c2cc(OC)c(OC)c(OC)c2)[C@@H]1OC`, the carcinogen call is, setting by setting: (Species: MOUSE, Strain/Sex: B6C3F1/FEMALE, Route: ORAL, Dose: 0, 5, 10 PPM IN DIET FOR 103 WK (STUDY DURATION: 105 WK), Dose: 0, 5, 10 PPM IN DIET FOR 103 WK (STUDY DURATION: 105 WK), Tumor Site: Type of Lesion: MAMMARY GLAND: MALIGNANT TUMOR) “active; positive”; (Species: MOUSE, Strain/Sex: B6C3F1/MALE, Route: ORAL, Dose: 0, 5, 10 PPM IN DIET FOR 103 WK (STUDY DURATION: 105 WK), Dose: 0, 5, 10 PPM IN DIET FOR 103 WK (STUDY DURATION: 105 WK), Tumor Site: Type of Lesion: SEMINAL VESICLES: CARCINOMA) “active; positive”; (Species: RAT, Strain/Sex: F344/FEMALE, Route: ORAL, Dose: 0, 5, 10 PPM IN DIET FOR 103 WK (STUDY DURATION: 105 WK), Dose: 0, 5, 10 PPM IN DIET FOR 103 WK (STUDY DURATION: 105 WK)) “inactive; negative”; (Species: RAT, Strain/Sex: F344/MALE, Route: ORAL, Dose: 0, 5, 10 PPM IN DIET FOR 103 WK (STUDY DURATION: 105 WK), Dose: 0, 5, 10 PPM IN DIET FOR 103 WK (STUDY DURATION: 105 WK), Tumor Site: Type of Lesion: ADRENAL GLAND: MALIGNANT PHEOCHROMOCYTOMA OR PHEOCHROMOCYTOMA) “active; positive”.

For the molecule `O=C(CO)[C@@H](O)[C@H](O)[C@H](O)CO`, the carcinogen call (Species: RAT, Strain/Sex: SPRAGUE-DAWLEY/MALE, Route: ORAL, Dose: 0, 120 G/L IN DRINKING WATER AD LIBITUM FOR 30 WK (STUDY DURATION: 501 D)) is “inactive; negative”.

With `CCn1cc(C(=O)O)c(=O)c2cc3c(cc21)OCO3`, the carcinogen call runs as follows: (Species: MOUSE, Strain/Sex: ICR/FEMALE, Route: ORAL, Dose: 0, 50, 150, 500 PPM IN DIET FOR 78 WK (STUDY DURATION: 78 WK), Dose: 0, 50, 150, 500 PPM IN DIET FOR 78 WK (STUDY DURATION: 78 WK)) “inactive; negative”; (Species: MOUSE, Strain/Sex: ICR/MALE, Route: ORAL, Dose: 0, 50, 150, 500 PPM IN DIET FOR 78 WK (STUDY DURATION: 78 WK), Dose: 0, 50, 150, 500 PPM IN DIET FOR 78 WK (STUDY DURATION: 78 WK)) “inactive; negative”; (Species: RAT, Strain/Sex: WISTAR/FEMALE, Route: ORAL, Dose: 0, 30, 100, 300, 1000 PPM IN DIET FOR 104 WK (STUDY DURATION: 104 WK), Dose: 0, 30, 100, 300, 1000 PPM IN DIET FOR 104 WK (STUDY DURATION: 104 WK)) “inactive; negative”; (Species: RAT, Strain/Sex: WISTAR/MALE, Route: ORAL, Dose: 0, 30, 100, 300, 1000 PPM IN DIET FOR 104 WK (STUDY DURATION: 104 WK), Dose: 0, 30, 100, 300, 1000 PPM IN DIET FOR 104 WK (STUDY DURATION: 104 WK), Tumor Site: Type of Lesion: TESTIS: BENIGN LEYDIG CELL TUMOR) “active; positive”.

Consider `COC(=O)[C@H](Cc1ccccc1)NC(=O)[C@@H](N)CC(=O)O` (H-Asp-Phe-OMe), for which the carcinogen call was “inactive; negative” (Species: MOUSE, Strain/Sex: SWISS/FEMALE, Route: INTRAVESICULAR, Dose: 0, 4-4.4 MG IN CHOLESTEROL PELLET (STUDY DURATION: 26 WK)) and “inactive; negative” (Species: MOUSE, Strain/Sex: SWISS/FEMALE, Route: INTRAVESICULAR, Dose: 0, 4-4.4 MG IN CHOLESTEROL PELLET (STUDY DURATION: 56 WK)).
